Assay results published in PubChem BioAssay AID330 (DTP/NCI, 2004).
Where “and” joins values, the source holds several entries; their conditions need not be identical. Equal entries are not always repeated. Toxic doses and inconclusive results are not listed.

System: P388 leukemia ip, CD2F1 mice, survival T/C
Assay: NCI In Vivo Anticancer Drug Screen. Data for tumor model P388 Leukemia (intraperitoneal) in CD2F1 (CDF1) mice
Details: endpoint: median survival time, higher = longer survival
Method in brief: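 Mice carrying the transplanted tumor received test compound or vehicle. Survival was recorded in each group, and the value is the treated-group measurement divided by that of the vehicle-treated control group.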

[1] = dose: 50.0 mg/kg/injection, schedule: Q01DX009 (ip), vehicle: saline with Tween-80
[2] = dose: 100.0 mg/kg/injection, schedule: Q01DX009 (ip), vehicle: saline with Tween-80
[3] = dose: 6.25 mg/kg/injection, schedule: Q01DX009 (ip), vehicle: saline with Tween-80
[4] = dose: 12.5 mg/kg/injection, schedule: Q01DX009 (ip), vehicle: saline with Tween-80

O=[N+]([O-])c1cc2c(cc1C=Nc1ccc(O)cc1)OCO2
T/C (dose: 12.5 mg/kg/injection, schedule: Q01DX009 (ip), vehicle: other): 113 % of control
T/C (dose: 25.0 mg/kg/injection, schedule: Q01DX009 (ip), vehicle: other): 117 % of control
T/C (dose: 50.0 mg/kg/injection, schedule: Q01DX009 (ip), vehicle: other): 113 % of control
T/C (dose: 100.0 mg/kg/injection, schedule: Q01DX009 (ip), vehicle: other): 96 % of control
T/C (dose: 200.0 mg/kg/injection, schedule: Q01DX009 (ip), vehicle: other): 110 % of control
T/C (dose: 400.0 mg/kg/injection, schedule: Q01DX009 (ip), vehicle: other): 113 % of control

CC(C)CC(N)C(=O)NC(Cc1cc2ccccc2[nH]1)C(=O)O (centres undefined)
T/C [1]: 101 % of control
T/C [2]: 107 % of control
T/C (dose: 200.0 mg/kg/injection, schedule: Q01DX009 (ip), vehicle: saline with Tween-80): 104 % of control

C=CC(=NC(C)(C)C)Nc1c(Cl)cccc1Cl
T/C (dose: 0.79 mg/kg/injection, schedule: Q01DX009 (ip), vehicle: saline): 100 % of control
T/C (dose: 1.56 mg/kg/injection, schedule: Q01DX009 (ip), vehicle: saline): 96 % of control
T/C (dose: 3.12 mg/kg/injection, schedule: Q01DX009 (ip), vehicle: saline): 108 % of control
T/C [3]: 114 % of control
T/C [4]: 119 % of control
T/C (dose: 12.5 mg/kg/injection, schedule: Q01DX009 (ip), vehicle: saline): 109 % of control
T/C (dose: 25.0 mg/kg/injection, schedule: Q01DX009 (ip), vehicle: saline): 116 % of control

Nc1cc2c3c(cccc3c1)C(=O)N(CCN1CCCC1)C2=O
T/C [3]: 102 % of control
T/C (dose: 6.5 mg/kg/injection, schedule: Q01DX009 (ip), vehicle: saline with Tween-80): 122 % of control
T/C (dose: 12.1 mg/kg/injection, schedule: Q01DX009 (ip), vehicle: saline with Tween-80): 163 % of control
T/C [4]: 110 % of control
T/C (dose: 24.2 mg/kg/injection, schedule: Q01DX009 (ip), vehicle: saline with Tween-80): 160 % of control and 180 % of control
T/C (dose: 48.39 mg/kg/injection, schedule: Q01DX009 (ip), vehicle: saline with Tween-80): 86 % of control and 96 % of control
T/C [1]: 173 % of control
T/C [2]: 189 % of control

Cc1ccc(-n2c(COc3c(C)cccc3C)n[nH]c2=S)cc1
T/C (dose: 12.5 mg/kg/injection, schedule: Q01DX009 (ip), vehicle: Klucel (hydroxypropylcellulose) (HPC)): 100 % of control
T/C (dose: 25.0 mg/kg/injection, schedule: Q01DX009 (ip), vehicle: Klucel (hydroxypropylcellulose) (HPC)): 100 % of control
T/C (dose: 50.0 mg/kg/injection, schedule: Q01DX005 (ip), vehicle: Klucel (hydroxypropylcellulose) (HPC)): 90 % of control
T/C (dose: 50.0 mg/kg/injection, schedule: Q01DX009 (ip), vehicle: Klucel (hydroxypropylcellulose) (HPC)): 109 % of control
T/C (dose: 200.0 mg/kg/injection, schedule: Q01DX005 (ip), vehicle: Klucel (hydroxypropylcellulose) (HPC)): 89 % of control

Cc1c2cnccc2c(CO)c2[nH]c3ccccc3c12
T/C (dose: 12.5 mg/kg/injection, schedule: Q04DX002 (ip), vehicle: saline with Tween-80): 119 % of control
T/C (dose: 100.0 mg/kg/injection, schedule: Q04DX002 (ip), vehicle: saline with Tween-80): 163 % of control

COC1NC(=O)NC(=O)C1=[N+]=[N-] (centres undefined)
T/C (dose: 2.5 mg/kg/injection, schedule: Q01DX009 (ip), vehicle: saline): 168 % of control
T/C (dose: 5.0 mg/kg/injection, schedule: Q01DX009 (ip), vehicle: saline sonified): 163 % of control
T/C (dose: 5.0 mg/kg/injection, schedule: Q01DX009 (ip), vehicle: saline with Tween-80): 154 % of control
T/C (dose: 7.5 mg/kg/injection, schedule: Q01DX009 (ip), vehicle: saline with Tween-80): 191 % of control
T/C (dose: 10.0 mg/kg/injection, schedule: Q01DX009 (ip), vehicle: saline sonified): 159 % of control
T/C (dose: 75.0 micrograms/kg/injection, schedule: Q01DX009 (ip), vehicle: saline): 109 % of control
T/C (dose: 150.0 micrograms/kg/injection, schedule: Q01DX009 (ip), vehicle: saline): 113 % of control

C/C(=N\NC(=S)Nc1ccc(C(=O)O)cc1C)c1ccc2ccccc2n1
T/C (dose: 50.0 mg/kg/injection, schedule: Q01DX005 (ip), vehicle: saline with Tween-80): 109 % of control
T/C (dose: 100.0 mg/kg/injection, schedule: Q01DX005 (ip), vehicle: saline with Tween-80): 107 % of control
T/C (dose: 200.0 mg/kg/injection, schedule: Q01DX005 (ip), vehicle: saline with Tween-80): 119 % of control

O=[N+]([O-])c1ccc(-n2nnc3ccccc32)nc1
T/C (dose: 50.0 mg/kg/injection, schedule: Q01DX009 (ip), vehicle: saline): 108 % of control
T/C (dose: 100.0 mg/kg/injection, schedule: Q01DX009 (ip), vehicle: saline): 99 % of control
T/C (dose: 200.0 mg/kg/injection, schedule: Q01DX009 (ip), vehicle: saline): 99 % of control
